Laboratory results taken from patent US20030073695A1, “Methods of use of gemifloxacin compounds against fluoroquinolone resistant Streptococcus pneumoniae bacteria” (priority 2000, published 2003).
≈ marks a conversion by molar mass, not a printed value.

Columns and labels:
[1] = test system: S. pneumoniae with reduced susceptibility to CIP; assay: MIC by NCCLS microbroth dilution, 80 clinical isolates with CIP MIC ≧2 μg/ml; type: cell-based; conditions: Streptococcus pneumoniae, 80 isolates with CIP MICs ≧2 μg/ml
Experimental: MICs to penicillin (herein “PEN”), CIP, levofloxacin (herein “LEV”), TFX, moxifloxacin (herein “MOX”), grepafloxacin (herein “GRE”), gatifloxacin (herein “GAT”), sparfloxacin (herein “SPA”), and gemifloxacin (herein “GFX”) were determined using a microbroth dilution technique described by the NCCLS. Topoisomerase IV (parC) and DNA gyrase (gyrA) mutations were confirmed by sequencing the QRDR region of each gene. Serotyping and PFGE were performed on all isolates. […] Breakpoints have not been established for all fluoroquines, thus percentage resistance was not calculated.

[2] = test system: CFX and TFX susceptible and resistant S. pneumoniae; assay: Postantibiotic effect (PAE), 2 hour exposure, viable colony counting; type: cell-based, Streptococcus pneumoniae; conditions: for mean PAE at 4× MIC: exposure 2 hours at 4× MIC; for mean PAE at 10× MIC: exposure 2 hours at 10× MIC
Experimental: This invention was based, in part, on analyses evaluating the comparative activity of gemifloxacin against various strains of S. pneumoniae.
MICs were determined using a microbroth dilution technique described by the NCCLS. Topisomeriase IV (parC) and DNA gyrase (gyrA) mutations were confirmed by sequencing the QRDR region of each gene. […] Antibiotics were removed using dilution into sterile media and the PAE assessed using a viable colony counting technique.

[3] = GFX, isolates not restricted to susceptible
[4] = isolates susceptible to the tested drug

Row | MIC50 ([1]; MIC50 of Table 1) [µg/mL] | MIC50 ([1]; Table 1 MIC50) [µg/mL] | MIC [1] [µg/mL] | mean PAE at 4× MIC [2, 3] [h] | mean PAE at 10× MIC [2, 3] [h] | Compound | difference in duration of PAE between CFX or TFX susceptible and resistant strains ([2]; p<0.05) | mean PAE at 4× MIC [2, 4] [h] | mean PAE at 10× MIC [2, 4] [h]
1 | 0.06 (≈ 0.154 µM) | 0.25 (≈ 0.642 µM) | 0.03 to 0.5 (≈ 0.077 to 1.28 µM) | 2.7 | 3.8 | CO/N=C1\CN(c2nc3c(cc2F)c(=O)c(C(=O)O)cn3C2CC2)CC1CN (racemic) [GFX, (R,S)-7-(3-aminomethyl-4-methoxyiminopyrrolidin-1-yl)-1-cyclopropyl-6-fluoro-4-oxo-1,4-dihydro-1,8-naphthyridine-3-carboxylic acid] | no significant difference | – | –
2 | 0.5 (≈ 1.33 µM) | 4 (≈ 10.7 µM) | 0.25 to 8 (≈ 0.666 to 21.3 µM) | – | – | COc1c(N2CCNC(C)C2)c(F)cc2c(=O)c(C(=O)O)cn(C3CC3)c12 (centres unmarked) [GAT, gatifloxacin] | – | – | –
3 | 0.5 (≈ 1.39 µM) | 8 (≈ 22.3 µM) | 0.12 to 8 (≈ 0.334 to 22.3 µM) | – | – | Cc1c(F)c(N2CCNC(C)C2)cc2c1c(=O)c(C(=O)O)cn2C1CC1 (centres unmarked) [GRE, grepafloxacin] | – | – | –
4 | 2 (≈ 5.53 µM) | 16 (≈ 44.3 µM) | 1 to 32 (≈ 2.77 to 88.6 µM) | – | – | C[C@H]1COc2c(N3CCN(C)CC3)c(F)cc3c(=O)c(C(=O)O)cn1c23 [LEV, levofloxacin] | – | – | –
5 | 0.25 (≈ 0.623 µM) | 2 (≈ 4.98 µM) | 0.12 to 4 (≈ 0.299 to 9.96 µM) | – | – | COc1c(N2C[C@@H]3CCCN[C@@H]3C2)c(F)cc2c(=O)c(C(=O)O)cn(C3CC3)c12 [MOX, moxifloxacin] | – | – | –
6 | 0.5 (≈ 1.27 µM) | 16 (≈ 40.8 µM) | 0.25 to 32 (≈ 0.637 to 81.5 µM) | – | – | C[C@@H]1CN(c2c(F)c(N)c3c(=O)c(C(=O)O)cn(C4CC4)c3c2F)C[C@H](C)N1 [SPA, sparfloxacin] | – | – | –

Row | Compound | MIC50 ([1]; MIC50 of Table 1) [µg/mL] | MIC50 ([1]; Table 1 MIC50) [µg/mL] | MIC [1] [µg/mL] | mean PAE at 4× MIC [2, 3] [h] | mean PAE at 10× MIC [2, 3] [h] | difference in duration of PAE between CFX or TFX susceptible and resistant strains ([2]; p<0.05) | mean PAE at 4× MIC [2, 4] [h] | mean PAE at 10× MIC [2, 4] [h]
7 | N[C@@H]1[C@H]2CN(c3nc4c(cc3F)c(=O)c(C(=O)O)cn4-c3ccc(F)cc3F)C[C@@H]12 [TFX, trovafloxacin] | 0.5 (≈ 1.2 µM) | 4 (≈ 9.61 µM) | 0.06 to 8 (≈ 0.144 to 19.2 µM) | – | – | – | 2.1 | 3.2
